Experiments:
[1] = molecular target: [Pyruvate dehydrogenase (acetyl-transferring)] kinase isozyme 4, mitochondrial (Homo sapiens, UniProt Q16654); experiment: PDK Inhibition Assay; settings: pH 7.5; 25 °C
[2] = molecular target: T1, [Pyruvate dehydrogenase (acetyl-transferring)] kinase isozyme 2, mitochondrial (Homo sapiens, UniProt Q15119); experiment: PDK Inhibition Assay; settings: pH 7.5; 25 °C
[3] = molecular target: T1, [Pyruvate dehydrogenase (acetyl-transferring)] kinase isozyme 2, mitochondrial; experiment: Isothermal Titration Calorimetry (ITC); settings: pH 7.5; 15 °C
Protocol: (§1) The PDK2 or Hsp90 N-terminal domain protein was dialyzed against 1 liter of thedialysis buffer containing 50 mM Tris-Cl, pH 7.5, 50 mM KCl, 1 mM MgCl2, and 0.5 mM β-mercaptoethanol.

[4] = molecular target: T2, Heat shock protein HSP 90-alpha [1-236] (Homo sapiens, UniProt P07900); experiment: Isothermal Titration Calorimetry (ITC); settings: pH 7.5; 15 °C
T2 construct: 1-236
Protocol: as §1

Sequence of [Pyruvate dehydrogenase (acetyl-transferring)] kinase isozyme 4, mitochondrial (Q16654 whole entry): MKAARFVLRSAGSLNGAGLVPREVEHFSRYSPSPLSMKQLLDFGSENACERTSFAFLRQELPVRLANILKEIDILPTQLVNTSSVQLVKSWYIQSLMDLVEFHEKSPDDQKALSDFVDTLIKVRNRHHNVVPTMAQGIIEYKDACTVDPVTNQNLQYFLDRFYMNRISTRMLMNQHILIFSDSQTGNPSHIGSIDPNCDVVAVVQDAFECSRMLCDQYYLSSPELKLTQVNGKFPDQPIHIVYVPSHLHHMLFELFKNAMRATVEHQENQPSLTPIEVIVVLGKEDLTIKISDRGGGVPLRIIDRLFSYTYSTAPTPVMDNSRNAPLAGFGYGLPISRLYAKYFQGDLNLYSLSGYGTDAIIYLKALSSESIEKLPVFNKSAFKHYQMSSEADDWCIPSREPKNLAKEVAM

Compound	IC50 [1]	IC50 [2]	Kd [3]	Kd [4]
O=C(O)C(Cl)Cl [DCA]	80 µM	183 µM	–	–
Oc1ccc(-c2nnc(S)n2-c2cccc3ccccc23)c(O)c1 [Resorcinol analog, 1]	0.28 µM	3.82 µM	6.76 µM	25 nM
